# Assay results from the supplement of paper PMC4932681.
# Where a name gives a salt, the structure may show the parent alone.
# Key:
# [1] = system: BT-474 Tam1; assay: relative IC50 (midpoint of fitted logistic curve, plateau may be below 50% inhibition; CellTiter-Glo viability); higher = less potent; details: 4-OH-tamoxifen in medium 1 µM; 72 h
# Procedure, shortened: (§1)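 Drug sensitivity score, relative IC50 as the curve midpoint, and top-dose inhibition were derived from logistic dose–response fits in the Breeze pipeline. These fits used CellTiter-Glo viability, read on a PHERAstar and normalised to vehicle-only and positive controls. Breast cancer cell lines and resistant derivatives had been incubated for 72 h at 37 °C in 384-well plates holding library drugs at five concentrations spanning a 10 000-fold range. Resistant lines were grown in medium with 1 μM of the selecting drug.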
# [2] = system: MCF-7 Tam1; assay: as above; details: 4-OH-tamoxifen in medium 1 µM; 72 h
# Procedure, shortened: as §1
# [3] = system: MCF-7; assay: as above; details: 72 h
# Procedure, shortened: as §1
# [4] = system: BT-474 Tam2; assay: as above; details: 4-OH-tamoxifen in medium 1 µM; 72 h
# Procedure, shortened: as §1
# [5] = system: T-47D Tam2; assay: as above; details: 4-OH-tamoxifen in medium 1 µM; 72 h
# Procedure, shortened: as §1
# [6] = system: ZR-75-1; assay: as above; details: 72 h
# Procedure, shortened: as §1
# [7] = system: ZR-75-1 Tam1; assay: as above; details: 4-OH-tamoxifen in medium 1 µM; 72 h
# Procedure, shortened: as §1
# [8] = system: BT-474; assay: as above; details: 72 h
# Procedure, shortened: as §1
# [9] = system: T-47D; assay: as above; details: 72 h
# Procedure, shortened: as §1
# [10] = system: ZR-75-1 Tam2; assay: as above; details: 4-OH-tamoxifen in medium 1 µM; 72 h
# Procedure, shortened: as §1
# [11] = system: T-47D Tam1; assay: as above; details: 4-OH-tamoxifen in medium 1 µM; 72 h
# Procedure, shortened: as §1
# [12] = system: BT-474 Tam1; assay: drug sensitivity score (DSS) (DSS (dimensionless)); higher = more sensitive; extreme values may be limits of the assay; details: 4-OH-tamoxifen in medium 1 µM; 72 h
# Procedure, shortened: as §1
# [13] = system: MCF-7 Tam1; assay: as above; details: 4-OH-tamoxifen in medium 1 µM; 72 h
# Procedure, shortened: as §1
# [14] = system: MCF-7; assay: as above; details: 72 h
# Procedure, shortened: as §1
# [15] = system: BT-474 Tam2; assay: as above; details: 4-OH-tamoxifen in medium 1 µM; 72 h
# Procedure, shortened: as §1
# [16] = system: T-47D Tam2; assay: as above; details: 4-OH-tamoxifen in medium 1 µM; 72 h
# Procedure, shortened: as §1
# [17] = system: ZR-75-1; assay: as above; details: 72 h
# Procedure, shortened: as §1
# [18] = system: ZR-75-1 Tam1; assay: as above; details: 4-OH-tamoxifen in medium 1 µM; 72 h
# Procedure, shortened: as §1
# [19] = system: BT-474; assay: as above; details: 72 h
# Procedure, shortened: as §1
# [20] = system: T-47D; assay: as above; details: 72 h
# Procedure, shortened: as §1
# [21] = system: ZR-75-1 Tam2; assay: as above; details: 4-OH-tamoxifen in medium 1 µM; 72 h
# Procedure, shortened: as §1
# [22] = system: T-47D Tam1; assay: as above; details: 4-OH-tamoxifen in medium 1 µM; 72 h
# Procedure, shortened: as §1
SMILES,relative IC50 [1] [µM],relative IC50 [2] [µM],relative IC50 ([3]; 4-OH-tamoxifen in medium 0 µM) [µM],relative IC50 ([3]; 4-OH-tamoxifen in medium 1 µM) [µM],relative IC50 [4] [µM],relative IC50 [5] [µM],relative IC50 ([6]; 4-OH-tamoxifen in medium 0 µM) [µM],relative IC50 ([6]; 4-OH-tamoxifen in medium 1 µM) [µM],relative IC50 [7] [µM],relative IC50 ([8]; 4-OH-tamoxifen in medium 0 µM) [µM],relative IC50 ([8]; 4-OH-tamoxifen in medium 1 µM) [µM],relative IC50 ([9]; 4-OH-tamoxifen in medium 0 µM) [µM],relative IC50 ([9]; 4-OH-tamoxifen in medium 1 µM) [µM],relative IC50 [10] [µM],relative IC50 [11] [µM],drug sensitivity score [12],drug sensitivity score [13],drug sensitivity score ([14]; 4-OH-tamoxifen in medium 0 µM),drug sensitivity score ([14]; 4-OH-tamoxifen in medium 1 µM),drug sensitivity score [15],drug sensitivity score [16],drug sensitivity score ([17]; 4-OH-tamoxifen in medium 0 µM),drug sensitivity score ([17]; 4-OH-tamoxifen in medium 1 µM),drug sensitivity score [18],drug sensitivity score ([19]; 4-OH-tamoxifen in medium 0 µM),drug sensitivity score ([19]; 4-OH-tamoxifen in medium 1 µM),drug sensitivity score ([20]; 4-OH-tamoxifen in medium 0 µM),drug sensitivity score ([20]; 4-OH-tamoxifen in medium 1 µM),drug sensitivity score [21],drug sensitivity score [22]
COC1=C2C[C@@H](C)C[C@H](OC)[C@H](O)[C@@H](C)/C=C(\C)[C@H](OC(N)=O)[C@@H](OC)/C=C\C=C(/C)C(=O)NC(=CC1=O)C2=O [Geldanamycin],1.25,1.91,2.79,0.943,0.494,1.34,1.34,1.07,1.12,0.563,0.518,2.95,3.59,1.44,0.235,8.85,4.81,5.35,9.55,12.9,6.85,6.31,9.2,7.66,9.69,10.8,4.34,3.67,6.52,14.8
NC(=O)NO [Hydroxyurea],> 100,> 100,> 100,–,> 100,> 100,> 100,> 100,> 100,> 100,–,> 100,> 100,> 100,> 100,0,0,0,0,0,0,0,0,0,0,0.154,0,0,0,0
CC(C)n1nc(-c2ccc3oc(N)nc3c2)c2c(N)ncnc21 [INK128],0.0209,0.0114,0.00736,0.00762,0.0302,0.00749,0.00613,0.00656,0.00481,0.0275,0.0471,0.0116,0.0119,0.00649,0.00291,13.2,7.07,18.9,13.6,7.32,8.98,16.1,13.6,15.1,5.72,9.54,15.4,8.51,17.5,16.9
CC(=O)[C@]1(O)Cc2c(O)c3c(c(O)c2[C@@H](O[C@H]2C[C@H](N)[C@H](O)[C@H](C)O2)C1)C(=O)c1ccccc1C3=O [Idarubicin],0.394,0.331,0.191,0.187,0.371,0.313,0.12,0.111,0.127,0.309,0.349,0.0974,0.329,0.086,0.123,3.94,1.86,6.65,5.56,3.03,2.4,6.29,5.81,5.45,4.38,4.91,8.26,3.11,7.63,8.94
O=P(O)(NCCCl)NCCCl [Ifosfamide mustard],> 10,> 10,> 10,> 10,> 10,> 10,> 10,> 10,> 10,> 10,> 10,> 10,> 10,> 10,> 10,0,0,0,0,0,0,0,0,0,0,0,0,0,0,0
O=P1(NCCCl)OCCCN1CCCl (stereo unspecified) [Ifosfamide],> 10,> 10,> 10,–,> 10,> 10,> 10,> 10,> 10,> 10,> 10,> 10,> 10,> 10,> 10,0,0,0,0.24,0,0,0,0,0,0,0,0,0,0,0
Nc1cccc2c1CN(C1CCC(=O)NC1=O)C2=O (stereo unspecified) [Lenalidomide],> 10,> 10,> 10,–,> 10,> 10,> 10,> 10,> 10,> 10,> 10,> 10,> 10,> 10,> 10,0,0,0,1.39,0,0,0,0,0,0,0,0,0,0,0
"c1ccc([C@H]2CN3CCSC3=N2)cc1 [Levamisole, (Tetramisole hydrochloride)]",> 10,> 10,> 10,> 10,> 10,> 10,> 10,> 10,> 10,> 10,> 10,> 10,> 10,> 10,> 10,0,0,0,0,0,0,0,0,0,0,0,0,0,0,0
Cc1ccc(F)c(NC(=O)Nc2ccc(-c3cccc4[nH]nc(N)c34)cc2)c1 [Linifanib (ABT-869)],> 1,> 1,> 1,> 1,> 1,> 1,> 1,> 1,> 1,> 1,> 1,> 1,> 1,> 1,> 1,0,0,0,0,0,0,0,0,0,0,0,0,0,0,0
O=C(O)CC[C@H]1CC[C@@](c2cc(F)ccc2F)(S(=O)(=O)c2ccc(Cl)cc2)CC1 [MK-0752],> 1,> 1,> 1,> 1,> 1,> 1,> 1,> 1,> 1,> 1,> 1,> 1,> 1,> 1,> 1,0,0,0,0,0,0,0,0,0,0,0,0,0,0,0
COc1c2occc2cc2ccc(=O)oc12 [Methoxsalen],> 10,> 10,> 10,> 10,> 10,> 10,> 10,> 10,> 10,> 10,> 10,> 10,> 10,> 10,> 10,0,0,0,0,0,0,0,0,0,0,0,0,0,0,0
C[C@H]1C[C@@H]2[C@H]([C@@H](O)C[C@@]3(C)[C@H]2CC[C@]3(O)C(=O)CO)[C@@]2(C)C=CC(=O)C=C12 [Methylprednisolone],> 10,> 10,> 10,–,> 10,> 10,> 10,> 10,> 10,> 10,> 10,> 10,> 10,> 10,> 10,0,0,0,0.455,0,0,0,0,0,0,0,0,0,0,0
Clc1ccc(C(c2ccccc2Cl)C(Cl)Cl)cc1 (stereo unspecified) [Mitotane],> 10,> 10,> 10,> 10,> 10,> 10,> 10,> 10,> 10,> 10,> 10,> 10,> 10,> 10,> 10,0,0,0,0,0,0,0,0,0,0,0,0,0,0,0
COc1nc(N)nc2c1ncn2[C@@H]1O[C@H](CO)[C@@H](O)[C@@H]1O [Nelarabine],> 10,> 10,–,> 10,> 10,> 10,–,> 10,> 10,> 10,> 10,> 10,> 10,> 10,> 10,0,0,0.277,0,0,0,0.0337,0,0,0,0,0,0,0,0
CCOc1cc2ncc(C#N)c(Nc3ccc(OCc4ccccn4)c(Cl)c3)c2cc1NC(=O)/C=C/CN(C)C [Neratinib],0.00418,> 1,> 1,–,0.00376,0.218,> 1,> 1,> 1,0.00918,0.00618,–,> 1,> 1,0.0976,28.3,0,0,2.07,28.7,2.11,0,0,0,20.8,25.6,0.25,0,0,3.53
